According to US12577273B2, “Small molecule modulators of gut bacterial bile acid metabolism” (priority 2019, dated 2026):
“Also recorded” adds a separate entry of the source. Where two headings read alike, the source gives them in different places.

Tests used:
conventional mice = assay: Food intake of conventional mice dosed with 3S-LCA-FMK; format: in vivo, mouse; conditions: compared to mice dosed with vehicle
C57BL/6 mice [1] = conditions: for detection in circulating plasma: in vivo
[2] = test system: BSH activity in conventional mouse feces; assay: Screen of inhibitors in conventional mouse feces; format: biochemical
Protocol: Screen of Inhibitors in Conventional Mouse Feces. […] The tubes were then frozen in dry ice for 5 mins and upon thawing were diluted with an equal volume of methanol. […] The supernatant was removed into a clean eppendorf tube and centrifuged again. […] The concentration of product detected from these assays was reported directly.

B. adolescentis BSH = assay: Target validation and off-target profiling in B. adolescentis using 7-N3; format: cell-based, Bifidobacterium adolescentis L2-32
Protocol: Target Validation and Off-target Profiling in B. adolescentis using 7-N3. Pilot studies with 7-N3 were performed using B. adolescentis (Gram positive) and B. theta (Gram negative). We chose to use B. adolescentis due to the stronger total fluorescent signal detected by-in gel fluorescence. […] Cultures were allowed to grow anaerobically at 37° C. for 21 h. 10 μM 7-N3 (10 mM stock in DMSO) or […] DMSO (to control tubes) was then added to the cultures and incubated anaerobically at 37° C. for 1 h. The cultures were centrifuged at 2,500 g at 4° C. for 15 mins. The media was decanted and cells were resuspended in PBS containing 1 mM TCEP and 1 mM PMSF and centrifuged 4,200 rpm at 4° C. for 15 mins. The buffer was decanted and the cells were suspended in 300 μL of fresh buffer and transferred to homogenizing tubes (Precellys lysing kit tough micro-organism lysing VK05 tubes) with ceramic beads. The suspension was then homogenized (5000 speed for 90 s*2, 6500 speed for 60 s) and spun down for 20 min at 15,000 g at 4° C. The supernatant was removed and the concentration of proteins in the lysate was quantified by Bradford assay. The lysates were then subjected to click reaction as per “Click Chemistry for In-gel Fluorescence Imaging” for fluorescence imaging and “Click Chemistry for MS/MS on Bacterial Lysate” for mass spectrophotometer-based quantification and identification.
Cultures were allowed to grow anaerobically at 37° C. for 21 h. Decreasing concentrations of 7 were added to different tubes and the cultures were incubated anaerobically at 37° C. for 1 h. 10 μM 7-N3 was then added to the cultures and incubated anaerobically at 37° C. for an additional hour. The cultures were further processed as per the reported method in “Target Validation and Off-target Profiling in B. adolescentis using 7-N3” and “Click Chemistry for In-gel Fluorescence Imaging”.
Click Chemistry for In-gel Fluorescence Imaging. Click reactions were performed on 25 μL scale. Lysates (normalized to 1.5 mg/mL for both bacterial and mammalian cells) pretreated with 10 μM Compound 7-N3 were incubated with 100 μM fluor 488-alkyne (10 mM stock in DMSO), 100 μM CuBr (5 mM stock in DMSO), and 100 μM Tris[(1-benzyl-1H-1,2,3-triazol-4-yl)methyl]amine (5 mM stock in 4:1 t-BuOH:DMSO) for 1 h at 37° C. in the dark. 10 μL of 2×Laemmli buffer (containing 5% β-mercaptoethanol) was added to the reactions and the tubes were heated at 95° C. for 10 mins. 15 μL of the protein samples were then resolved by 10% SDS-PAGE. The ladder was diluted 100-fold and 10 μL was loaded. Gels were destained for 30 mins using 40% methanol, 50% acetic acid, 10% water and visualized using Bio-Rad ChemiDoc MP Imaging System. Gels were stained for 20 mins in Coomassie blue and destained for 2 h prior to imaging.
Click Chemistry for MS/MS on Bacterial Lysate. Click reactions were performed on 100 μL scale. Lysates (normalized to 1.3 mg/mL) pretreated with 10 μM 7-N3 were incubated with 100 μM desthiobiotin-PEG4-alkyne (10 mM stock in DMSO), 1 mM CuBr (50 mM stock in DMSO), and 1 mM Tris[(1-benzyl-1H-1,2,3-triazol-4-yl)methyl]amine (50 mM stock in 4:1 t-BuOH:DMSO) for 1 h at 37° C. The samples were then processed for further analysis as per “Proteomic Analysis of Click-Tagged Proteins”.
Proteomic Analysis of Click-Tagged Proteins.

NCI-H716 cells = assay: Off-target profiling in mammalian cells using 7-N3; format: cell-based, human
Protocol: Off-Target profiling in Mammalian Cells using 7-N3. The human epithelial cell line NCI-H716 was used to study interactions with mammalian proteins. 10 μM 7-N3 (10 mM stock in DMSO) or 1 uL DMSO (for control) were added to ˜8×10^6 cells in 1 ml DPBS (HiMedia) and incubated for 1 h. Cells were collected in 15 ml Falcon tubes and washed 2 times in 15 ml DBPS by centrifugation at 500 g for 5 mins. A 3rd wash by centrifugation was performed in 1 mM solution of cOmplete™ Protease Inhibitor Cocktail (Roche, Switzerland) in DPBS. Cells were resuspended in 250 ul of DPBS with 1 mM cOmplete™ Protease Inhibitor Cocktail and sonicated at 50% amplitude for 2 secs followed by 30 secs on ice for 3 cycles. The lysate was centrifuged at 15,000 g for 15 mins at 4° C. The supernatant was removed and protein concentration was measured by Bradford assay. The lysates were then subjected to click reaction as per “Click Chemistry for In-gel Fluorescence Imaging” for in-gel fluorescence and “Click Chemistry for MS/MS on Mammalian Lysate” for mass spectrophotometer-based quantification and identification.
Click Chemistry for In-gel Fluorescence Imaging. Click reactions were performed on 25 μL scale. […]
Proteomic Analysis of Click-Tagged Proteins. […] Indicated bands were excised, subjected to in-gel digestion, and extracted peptides analyzed by nanoflow LC-MS/MS as described.^53

C57BL/6 mice [3] = conditions: mouse, in vivo
Protocol: Animal Studies. C57BL/6 mice obtained from Jackson laboratories were maintained under a strict 12 h/12 h light/dark cycle and a constant temperature (21±1° C.) and humidity (55-65%). All experiments were conducted on 8-9 week old male mice.
Mice were fed powdered standard chow diet (LabDiet, catalog no. 5053) for the duration of the experiment. Mice were split into two groups of ten mice each and were maintained on powdered chow (control group) or fed powdered chow containing 0.09% (w/w) GR-7 (experimental group). Feces from these mice were collected as described above at 8 h. Mice were euthanized after 30 hours of access to the powdered chow with or without GR-7 using carbon dioxide. Blood samples were collected by cardiac puncture and placed in EDTA-coated tubes on ice. The liver and cecal contents were then collected from each mouse, snap frozen in liquid nitrogen, and stored at −80° C. until further analysis. […]
BSH Activity in Feces. BSH activity in fecal pellets were quantified using a modified version of a published method.^45 Fecal pellets (approximately 10-20 mg) were suspended in buffer (10% PBS, 90% sodium acetate at pH 5.2) containing 100 μM (GCDCA-d4) to obtain a concentration of 20 mg/mL. […] The concentration of product detected from these assays were reported directly.
Quantification of Bile Acids in Tissues and Plasma. […]
Quantification of bacterial 16S rDNA copy number. […]

[4] = test system: differentiated Caco-2 cells; assay: Epithelial permeability assay (4 kDa FITC-dextran)

## C[C@H](CCC(=O)CF)[C@H]1CC[C@H]2[C@@H]3CC[C@@H]4C[C@H](OS(=O)(=O)O)CC[C@]4(C)[C@H]3CC[C@]12C [Compound 3S-LCA-FMK, 3-sulfated-lithocholic acid-fluoromethyl ketone]
Conventional mice
  food intake: significant decrease in food consumption; also recorded: reduces food intake
C57BL/6 mice [1]; 0.03% weight/weight in chow ad libitum for 7 days
  BSH activity in feces: significantly reduced
C57BL/6 mice [1]; male, C57Bl/6, mouse
  detection in circulating plasma: No 3S-LCA-FMK was detectable
C57BL/6 mice [1]; mouse
  detection in circulating plasma: not detectable

## C[C@H](CCC(=O)CF)[C@H]1CC[C@H]2[C@@H]3[C@H](O)C[C@@H]4C[C@H](N=[N+]=[N-])CC[C@]4(C)[C@H]3CC[C@]12C [Compound 7-N3]
[2]; 7-N3, concentration not given
  BSH inhibition in conventional mouse feces (in words): significant BSH inhibition; also recorded: potently inhibited BSH activity in mouse feces
B. adolescentis BSH; 10 μM, 1 hour, click with Fluor 488-alkyne
  in-gel fluorescence labeling in B. adolescentis L2-32: labeling of only one protein; also recorded: Only one fluorescent band was visible
B. adolescentis BSH; desthiobiotin-alkyne, streptavidin pulldown, in-gel digestion, LC-MS/MS, semi-quantitative
  enrichment of BSH in gel bands, probe- versus vehicle-treated cultures: 4.5 fold
B. adolescentis BSH; label-free LC-MS/MS, biological triplicate
  enrichment of other bacterial proteins: ≤ 2 fold
B. adolescentis BSH; on-bead digestion, label-free LC-MS/MS
  enrichment of BSH in probe-treated cultures: 3.6 fold
NCI-H716 cells; 10 μM, 1 h, click with Fluor 488-alkyne
  in-gel fluorescence labeling in NCI-H716 cells: no significant labeling of proteins; also recorded: no enrichment of any band
NCI-H716 cells; label-free LC-MS/MS
  enrichment of proteins in probe-treated NCI-H716 lysates: ≤ 2 fold

## C[C@H](CCC(=O)CF)[C@H]1CC[C@H]2[C@@H]3[C@H](O)C[C@@H]4C[C@H](OS(=O)(=O)[O-])CC[C@]4(C)[C@H]3CC[C@]12C.[Na+] [GR-7]
[2]; 20 μM or 60 μM of GR-7, 30 mins, GCDCA-d4 100 μM, 18 hours
  BSH inhibition in mouse fecal slurry (in words): remains a potent pan-BSH inhibitor; also recorded: inhibited BSH activity in a fecal slurry
C57BL/6 mice [3]
  detection in feces: detected
  microbial biomass (16S rDNA copies/g in cecal contents): did not affect microbial biomass
[4]; 60 μM
  epithelial barrier integrity of Caco-2 cells: did not affect epithelial barrier integrity
[4]; differentiated Caco-2, apical chamber, 6 or 12 h
  epithelial monolayer integrity (passive diffusion of 4 kDa FITC-dextran): did not compromise epithelial monolayer integrity
